Test results taken from patent US11478474B2, “2-(3′-(hydroxymethyl)-1-methyl-5-((5-(2-methyl-4-(oxetan-3-yl)piperazin-1-yl)pyridin-2-yl)amino)-6-oxo-1,6-dihydro-[3,4′-bipyridin]-2′-yl)-7,7-dimethyl-7,8-dihydro-2H-cyclopenta[4,5]pyrrolo[1,2-a]pyrazin-1(6H)-one as a BTK inhibitor” (HUTCHISON MEDIPHARMA LIMITED, priority 2020, dated 2022).

How the values were obtained:
[1] = Stability test in liver microsomes (rat); assay type: in vitro ADME
Excerpt: (§1) Example 5 Stability Test in Liver Microsomes
(§2) Both male CD-1 mouse pooled liver microsomes and male SD rat pooled liver microsomes were purchased from BioreclamationIVT Corporation, USA.
(§3) Phenacetin, glucose-6-phosphate dehydrogenase (G-6-PDH) and nicotinamide adenine dinucleotide phosphate (NADP) were all purchased from Sigma-Aldrich Corporation, USA. Glucose-6-phosphate (G-6-P) was purchased from Shanghai Eybridge Chemical Technology Co., Ltd.
(§4) Ten mM test compound stock solution: a certain amount of test compound was weighed, and dissolved with an appropriate volume of DMSO to prepare a stock solution with a concentration of 10 mM for use.
(§5) Reaction stopping solution: an appropriate amount of internal standard compound phenacetin was dissolved in acetonitrile to prepare a reaction stopping solution with a concentration of 1000 ng/mL for use at room temperature.
(§6) The test compound stock solution was diluted with an organic solvent (usually a mixture of acetonitrile, methanol and water with various ratios, depending on the solubility of the compound, if necessary, 1 N hydrochloric acid or 1 N sodium hydroxide would be added to facilitate solubilization) to the 0.1 mM (the final concentration of the compound in the reaction system was 1 μM) and the concentration percentage of the organic solvents in the incubation system no more than 1% (wherein the percentage of DMSO was required to be no more than 0.1%). An appropriate amount of 100 mM NADP, 500 mM G-6-P and 100 Unit/mL G-6-PDH were mixed and diluted with ultrapure water (the final system contains 1 mM NADP, 5 mM G-6-P and 1 Unit/mL G-6-PDH), pre-incubated in a 37° C. water bath for 10 minutes and then placed on ice for use as a NADPH regeneration solution. 20 mg/mL liver microsomes solution and 200 mM phosphate buffer was mixed, and diluted with ultrapure water to give a liver microsomes solution containing 2.5 mg/mL liver microsomes (the final concentration of the reaction system is 0.5 mg/mL) and 50 mM phosphate buffer. The diluted liver microsomes solution was mixed with 0.1 mM compound solution, a mixture of 100 mM EDTA, 300 mM MgCl2 solution, 200 mM phosphate buffer (the final system was 3 mM MgCl2, 1 mM EDTA and 50 mM phosphate buffer) and water in an appropriate volume was added. Finally, the NADPH regeneration solution was added, then the reaction solution was placed in a 37° C. water bath to start the reaction (the reaction time was 30 minutes), and the reaction was stopped by adding the ice-cold acetonitrile reaction stopping solution containing the internal standard. The 0-minute sample was not incubated in a 37° C. water bath, and its difference from the 30-minute sample further lies in that the ice-cold acetonitrile reaction stopping solution containing the internal standard was added first, and then the NADPH regeneration solution was added. The sample added with the reaction stopping internal standard solution was vortexed and mixed well, and then centrifuged at 4400 rpm for 10 minutes. The supernatant was taken and diluted ten times with 50% methanol for LC-MS/MS analysis.
(§7) LC-MS/MS was used to determine the concentration of the compound in the sample. The percentage of the remaining compound after 30 minutes of incubation comparing with that in the 0-minute sample was calculated using the peak area ratio of the compound to the internal standard as an indicator, to evaluate the metabolic stability of the compound.
(§8) Instrument: API4500, API4000 or LTQ Mass Spectrometer; the liquid phase is UHPLC system (Shimadzu LC-30 AD, model Nexra X2) including liquid delivery unit, column thermostat, detector and autosampler; or Agilent 1200 Binary Pump series HPLC and CTC Autosampler.
(§9) Chromatographic column: Waters XSELECT Hss T3 C18 (2.5 μm, 2.1×50 mm) or […] (5 μm, 2.0×50 mm)
(§10) A: water with 0.1% FA (formic acid) (with or without 0.1% ACN (acetonitrile))
(§11) B: acetonitrile with 0.1% FA (formic acid).

[2] = Stability test in liver microsomes (mouse); assay type: in vitro ADME; settings: mouse liver microsomes 0.5 mg/mL, compound 1 μM, 37° C.
Excerpt: as §1, §2, §3, §4, §5, §6, §7, §8, §9, §10, §11

[3] = test system: B cell activation in mouse whole blood induced by anti-IgD antibodies; experiment: In vivo efficacy of the inhibitory effect on BTK target (anti-IgD antibody-induced B cell activation in mice whole blood after in vivo administration); settings: 5 mg/kg, mice whole blood, anti-IgD antibody; for Inhibition ratio (%) on B cell activation: 16 hours after administration
Experimental: Objects: B cells in mice whole blood were induced and activated by the anti-IgD antibody, and the inhibitory effect of the compound of the present invention on B cell activation in vivo was studied, so as to determine the inhibitory effect of the compound of the present invention on the BTK target in vivo.
Methods: C57BL/6 mice (female, 18-20 g, purchased from Shanghai Lingchang Biotechnology Co., Ltd.) were grouped according to Table 2.
The animals of each group were administered, then were placed in CO2 for anesthesia at designated time points, blood samples were taken from […] via retro-orbital bleeding, and heparin was used for anticoagulation; 90 μL of whole blood was taken from mice of each group, and added to a 96 well culture plate, and anti-mouse IgD antibody (BIO-RAD, Cat #MCA4693) was added to each well to a final concentration of 0.01 μg/μL (respectively for the each drug-treated group and anti-IgD antibody-inducted vehicle group); in addition, 90 μL of whole blood of mice in the vehicle group was taken and added to the 96-well culture plate, and PBS (phosphate buffer, GIBCO, Cat #C20012500BT) was added to each well to a final concentration of 0.01 μg/μL (namely, the vehicle control group); Each group was mixed well and incubated in a 37° C./5% CO2 incubator for 4 hours. In addition, the blood of mice in the drug-treated group was centrifuged to separate plasma for blood concentration analysis.
Calculation for B Cell Activation Ratio: B cell activation ratio=percentage of CD69+CD19+double positive B cells/percentage of CD19+single positive B cells
Calculation for Inhibition Ratio: Inhibition ratio=(percentage of B cell activation ratio in anti-IgD antibody-induced vehicle group-percentage of B cell activation ratio in drug-treated group)/(percentage of B cell activation ratio in anti-IgD antibody-induced vehicle group-percentage of B cell activation ratio in vehicle control group)×100%
All data are represented by mean±standard error. For the comparison between each drug-treated group and the anti-IgD antibody-induced vehicle group, p value was calculated by Graphpad Prism using one-way ANOVA analysis of variance and Dunnett's test, and for the comparison between each drug-treated group, p value was calculated by using unpaired t test.

## C[C@H]1CN(C2COC2)CCN1c1ccc(Nc2cc(-c3ccnc(-n4ccn5c6c(cc5c4=O)CC(C)(C)C6)c3CO)cn(C)c2=O)nc1 [Compound 19]
[1]; rat & mouse liver microsomes, 30 minutes
  stability in rat & mouse liver microsomes compared with the reference GDC-0853: better than that of the reference GDC-0853
[1]; rat liver microsomes 0.5 mg/mL, compound 1 μM, 37° C.
  RLM (percentage of the remaining compound after 30 minutes of incubation): 92.7%
[2]
  MLM (percentage of the remaining compound after 30 minutes of incubation): 91.8%
[3]; 16 h after administration, mean±standard error
  B cell activation ratio (the proportion of activated B cells to total B cells): 8.3 ± 1.2
[3]; listed as Compound 19
  Inhibition ratio (%) on B cell activation: 80%
[3]; listed as compound 19
  Inhibition ratio (%) on B cell activation: 80%
